What all share (type): functional
Assay [1] concerns Mycobacterium tuberculosis. Nature of the assay: Antimycobacterial activity against Mycobacterium tuberculosis H37Rv ATCC 27294 using compound level ranging from 1 to 100 ug/mL after 7 days by resazurin reduction test. Particulars: H37Rv ATCC 27294, 168 h.
Assay [2] has as its system Mycolicibacterium smegmatis. In words: Antimycobacterial activity against Mycobacterium smegmatis MC2 ATCC 19420 using compound level ranging from 1 to 100 ug/mL after 7 days by resazurin reduction test. Particulars: MC2 ATCC 19420, 168 h. (In general: Alamar Blue is a resazurin reagent that responds to reducing activity.)
The subject of assay [3] is Mycolicibacterium fortuitum. In words: Antimycobacterial activity against Mycobacterium fortuitum ATCC 19542 using compound level ranging from 0.3125 to 5 ug/mL after 7 days by resazurin reduction test. Particulars: ATCC 19542, 168 h.
Assay [4] concerns Mycolicibacterium fortuitum. In words: Antimycobacterial activity against Mycobacterium fortuitum ATCC 19542 using compound level ranging from 1 to 100 ug/mL after 7 days by resazurin reduction test. Particulars: ATCC 19542, 168 h.
For assay [5], the system named is Mycobacterium tuberculosis. Nature of the assay: Growth inhibition of Mycobacterium tuberculosis H37Rv ATCC 27294 using compound level ranging from 1 to 100 ug/mL after 7 days by resazurin reduction test.
For assay [6], the system named is Mycobacterium tuberculosis. Nature of the assay: Antimycobacterial activity against Mycobacterium tuberculosis H37Rv ATCC 27294 using compound level ranging from 0.3125 to 5 ug/mL after 7 days by resazurin reduction test. Particulars: H37Rv ATCC 27294, 168 h.
In assay [7] the test system is Mycolicibacterium smegmatis. Nature of the assay: Antimycobacterial activity against Mycobacterium smegmatis MC2 ATCC 19420 using compound level ranging from 0.3125 to 5 ug/mL after 7 days by resazurin reduction test. Particulars: MC2 ATCC 19420, 168 h.
A further assay concerns Streptococcus pyogenes. Nature of the assay: Antibacterial activity against Streptococcus pyogenes clinical isolate after 18 to 25 hrs by serial plate dilution method.
In another assay the test system is Staphylococcus aureus. Nature of the assay: Antibacterial activity against Staphylococcus aureus ATCC 25923 after 18 to 25 hrs by serial plate dilution method.
The subject of another assay is Klebsiella pneumoniae. In words: Antibacterial activity against Klebsiella pneumoniae clinical isolates after 18 to 25 hrs by serial plate dilution method.
The next assay has as its system Pseudomonas aeruginosa. Nature of the assay: Antibacterial activity against Pseudomonas aeruginosa ATCC 27853 after 18 to 25 hrs by serial plate dilution method.
Another assay relates to Escherichia coli. Nature of the assay: Antibacterial activity against Escherichia coli ATCC 25922 after 18 to 25 hrs by serial plate dilution method.

Values after ≈ are worked out from the molar mass of the structure shown.

Turning to `NNC(=O)c1ccncc1` [ISONIAZID], the MIC (commonly the least concentration at which growth counts as inhibited) in [1] amounted to 0.7 µg/mL (≈ 5.1 µM); in assay [2], 50 µg/mL (≈ 365 µM); in [3], 12.5 µg/mL (≈ 91.1 µM); in [4], 12.5 µg/mL (≈ 91.1 µM); in assay [6], 0.7 µg/mL (≈ 5.1 µM); in assay [7], 50 µg/mL (≈ 365 µM). Further, in assay [5], the “growth inhibition (GI)” value worked out at 95%.

In the case of `O=C(N/N=C/c1cnc[nH]1)c1cnc2c(C(F)(F)F)cccc2c1O`, the minimum inhibitory concentration (MIC) in assay [1] was 1 µg/mL (≈ 2.86 µM); in assay [2], greater than 1000 µg/mL; in the assay with Streptococcus pyogenes, 0.4 µg/mL (≈ 1.15 µM); in the assay on Staphylococcus aureus, 0.8 µg/mL (≈ 2.29 µM); in assay [3] it was 10 µg/mL (≈ 28.6 µM); in assay [4], 10 µg/mL (≈ 28.6 µM). For the same compound, the MIC worked out at 0.4 µg/mL (≈ 1.15 µM) against Klebsiella pneumoniae, 0.8 µg/mL (≈ 2.29 µM) against Pseudomonas aeruginosa, 0.2 µg/mL (≈ 0.573 µM) in the assay on Escherichia coli and 1.25 µg/mL (≈ 3.58 µM) in assay [6]. In addition, the “growth inhibition (GI)” value in assay [5] is listed as 90%.

On to `Cn1cccc1/C=N\NC(=O)c1cnc2c(C(F)(F)F)cccc2c1O`, for which the MIC came to 1 µg/mL (≈ 2.76 µM) in [1]; 1 µg/mL (≈ 2.76 µM) in assay [2]; 0.4 µg/mL (≈ 1.1 µM) against Streptococcus pyogenes; 0.8 µg/mL (≈ 2.21 µM) against Staphylococcus aureus; 10 µg/mL (≈ 27.6 µM) in assay [3]; 10 µg/mL (≈ 27.6 µM) in assay [4]. The minimal inhibitory concentration (MIC) worked out at 0.1 µg/mL (≈ 0.276 µM) in the assay with Klebsiella pneumoniae; 0.4 µg/mL (≈ 1.1 µM) against Pseudomonas aeruginosa; 0.1 µg/mL (≈ 0.276 µM) with Escherichia coli; 0.625 µg/mL (≈ 1.73 µM) in assay [6]; 1.25 µg/mL (≈ 3.45 µM) in assay [7]. Further, the “growth inhibition (GI)” value in [5] came out at 90%.

`COc1ccc(NC(=O)NNC(=O)c2cnc3c(C(F)(F)F)cccc3c2O)cc1`: the minimum inhibitory concentration (MIC) stood at 1 µg/mL (≈ 2.38 µM) in assay [1]; 10 µg/mL (≈ 23.8 µM) in [2]; 0.4 µg/mL (≈ 0.952 µM) in the assay with Streptococcus pyogenes; 0.8 µg/mL (≈ 1.9 µM) in the assay with Staphylococcus aureus; 12.5 µg/mL (≈ 29.7 µM) in assay [3]; 10 µg/mL (≈ 23.8 µM) in assay [4]. Further, the minimal inhibitory concentration (MIC) against Klebsiella pneumoniae turned out to be 0.1 µg/mL (≈ 0.238 µM); against Pseudomonas aeruginosa, 0.4 µg/mL (≈ 0.952 µM); in the assay with Escherichia coli it was 0.1 µg/mL (≈ 0.238 µM); in assay [6] it was 1.25 µg/mL (≈ 2.97 µM); in assay [7], 10 µg/mL (≈ 23.8 µM). Besides, the “growth inhibition (GI)” value in [5] is reported as 90%.

Turning to `COc1ccc(/C=N/NC(=O)c2cnc3c(C(F)(F)F)cccc3c2O)c(F)c1`, the minimum inhibitory concentration (MIC) in [1] was 1 µg/mL (≈ 2.46 µM); in [2], 10 µg/mL (≈ 24.6 µM); in the assay on Streptococcus pyogenes it was 0.4 µg/mL (≈ 0.982 µM); in the assay on Staphylococcus aureus it was 0.8 µg/mL (≈ 1.96 µM); in assay [3], 10 µg/mL (≈ 24.6 µM); in assay [4], 10 µg/mL (≈ 24.6 µM). The MIC worked out at 0.1 µg/mL (≈ 0.246 µM) with Klebsiella pneumoniae; 0.4 µg/mL (≈ 0.982 µM) in the assay on Pseudomonas aeruginosa; 0.1 µg/mL (≈ 0.246 µM) against Escherichia coli; 0.625 µg/mL (≈ 1.53 µM) in [6]; 10 µg/mL (≈ 24.6 µM) in [7]. The “growth inhibition (GI)” value in assay [5] stood at 95%.

For the compound `CO[C@H]1/C=C/O[C@@]2(C)Oc3c(C)c(O)c4c(O)c(c(/C=N/N5CCN(C)CC5)c(O)c4c3C2=O)NC(=O)/C(C)=C\C=C\[C@H](C)[C@H](O)[C@@H](C)[C@@H](O)[C@@H](C)[C@H](OC(C)=O)[C@@H]1C` [RIFAMPIN], the minimal inhibitory concentration (MIC) in assay [1] was 0.5 µg/mL (≈ 0.608 µM); in assay [2], 1.5 µg/mL (≈ 1.82 µM); in assay [3], 1.5 µg/mL (≈ 1.82 µM); in assay [4], 1.5 µg/mL (≈ 1.82 µM); in assay [6], 0.5 µg/mL (≈ 0.608 µM); in assay [7] it was 1.5 µg/mL (≈ 1.82 µM). Moreover, the “growth inhibition (GI)” value in assay [5] came to 95%.

Consider `O=C(NNC(=S)Nc1ccccc1F)c1cnc2c(C(F)(F)F)cccc2c1O`, for which the MIC in assay [1] was found to be 1 µg/mL (≈ 2.36 µM); in [2], 10 µg/mL (≈ 23.6 µM); against Streptococcus pyogenes, 0.4 µg/mL (≈ 0.943 µM); against Staphylococcus aureus, 0.8 µg/mL (≈ 1.89 µM); in assay [3] it was 10 µg/mL (≈ 23.6 µM); in assay [4] it was 10 µg/mL (≈ 23.6 µM). The MIC in the assay on Klebsiella pneumoniae came out at 0.1 µg/mL (≈ 0.236 µM); against Pseudomonas aeruginosa, 0.4 µg/mL (≈ 0.943 µM); against Escherichia coli, 0.1 µg/mL (≈ 0.236 µM); in [6], 0.625 µg/mL (≈ 1.47 µM); in assay [7] it was 10 µg/mL (≈ 23.6 µM). For the same compound, the “growth inhibition (GI)” value in assay [5] is recorded as 95%.

With `O=C(N/N=C/c1cc(F)ccc1O)c1cnc2c(C(F)(F)F)cccc2c1O`, the MIC in assay [1] amounted to 10 µg/mL (≈ 25.4 µM); in assay [2], 10 µg/mL (≈ 25.4 µM); in the assay on Streptococcus pyogenes, 0.8 µg/mL (≈ 2.03 µM); in the assay on Staphylococcus aureus, 0.8 µg/mL (≈ 2.03 µM); in assay [3] it was 10 µg/mL (≈ 25.4 µM); in [4] it was 10 µg/mL (≈ 25.4 µM). Besides, the MIC was 0.1 µg/mL (≈ 0.254 µM) in the assay on Klebsiella pneumoniae; 0.4 µg/mL (≈ 1.02 µM) against Pseudomonas aeruginosa; 0.1 µg/mL (≈ 0.254 µM) against Escherichia coli; 2.5 µg/mL (≈ 6.36 µM) in assay [6]; 10 µg/mL (≈ 25.4 µM) in assay [7]. Moreover, the “growth inhibition (GI)” value in [5] is less than 90%.

These data come from ChEMBL document CHEMBL1909590, “Design, synthesis and docking studies of new quinoline-3-carbohydrazide derivatives as antitubercular agents” (2011).
